One data set has as its system Boophilus microplus. Kind of data set: Boophilus microplus test (BOOPMI injection). The conditions noted are these: application rate 20 μg/animal; injected into the abdomen; after 7 days. In kind it is in vivo. The essentials: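 Active ingredient dissolved in DMSO (10 mg in 0.5 ml, then diluted to the test concentration) and injected into the abdomen of Boophilus microplus ticks. Ticks kept in dishes in a climate-controlled room for 7 days. Efficacy (%) is based on laying of fertile eggs; 100% means no tick laid fertile eggs.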

Another data set has as its system Ctenocephalides felis. In words: Ctenocephalides felis oral (CTECFE). The conditions noted are these: application rate 100 ppm in citrated cattle blood; after 2 days. In kind it is in vivo. A digest of the protocol:
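About 20 unfed adult fleas fed through a Parafilm membrane on citrated cattle blood containing the compound at the desired concentration, diluted from a DMSO concentrate. Kill in % was scored after 2 days, where 100% means all fleas dead and 0% none.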

The test system of the next data set is Lucilia cuprina larvae. Kind of data set: Lucilia cuprina test (LUCICU). It counts as in vivo. The note with it: application rate 100 ppm; treated horse meat; after 2 days. A digest of the protocol: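 About 20 Lucilia cuprina larvae placed on horse meat treated with compound formulation (DMSO concentrate diluted in water). Kill (%) scored after 2 days, 100% meaning all larvae dead.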

A further data set concerns adult Musca domestica. Kind of data set: Musca domestica test (MUSCDO). It counts as in vivo. The conditions noted are these: application rate 100 ppm; treated sponge; after 2 days. A digest of the protocol: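 Compound dissolved in DMSO and diluted with water to the desired concentration was applied to a sponge, and vessels were populated with adult flies. Kill % was scored after 2 days, where 100% means all flies dead.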

For another data set, the system named is Aulacophora femoralis. In words: Aulacophora femoralis spray test (AUACFE). In kind it is in vivo. The conditions noted are these: application rate 20 ppm; cucumber plants, L2 larvae; after 6 days. Here is the method: Aulacophora femoralis Spray Test (AUACFE) Solvent: 3 parts by weight of dimethylformamide Emulsifier: 1 part by weight of polyoxyethylene alkylphenyl ether To produce an appropriate active ingredient formulation, 1 part by weight of active ingredient is mixed with the stated amounts of solvent and emulsifier, and the concentrate is diluted with emulsifier-containing water to the desired concentration. If required, ammonium salts or ammonium salts and penetrants are additionally added in a concentration of 1000 ppm. Young cucumber plants (Cucumis sativus) at the cotyledonous leaf stage are sprayed with an active ingredient formulation of the desired concentration. After drying, the treated plant material is introduced into test vessels and each is infected with 5 L2 larvae of the cucurbit leaf beetle (Aulacophora femoralis). After 6 days, the efficacy in % is determined. 100% means that all of the beetle larvae have been killed; 0% means that none of the beetle larvae have been killed.

The subject of a further data set is Myzus persicae. In words: Myzus persicae spray test (MYZUPE - OP/Carb-resistant). The conditions noted are these: application rate 100 ppm; aubergine plants; after 6 days. In kind it is in vivo. Here is the method: Myzus persicae Spray Test (MYZUPE—OP/Carb-Resistant)
(§1) Solvent: 3 parts by weight of dimethylformamide
(§2) Emulsifier: 1 part by weight of polyoxyethylene alkylphenyl ether
(§3) To produce an appropriate active ingredient formulation, 1 part by weight of active ingredient is mixed with the stated amounts of solvent and emulsifier, and the concentrate is diluted with emulsifier-containing water to the desired concentration. If required, ammonium salts or ammonium salts and penetrants are additionally added in a concentration of 1000 ppm.
Aubergine plants (Solanum melongena) at the 2-leaf stage, which have been infested with a mixed population of the green peach aphid (Myzus persicae), are sprayed with an active ingredient formulation of the desired concentration.
After 6 days, the efficacy in % is determined. 100% means that all of the aphids have been killed; 0% means that none of the aphids have been killed.

In data set [1] the test system is Tetranychus urticae. Kind of data set: Common spider mite test (TETRUR). In kind it is in vivo. The note with it: application rate 100 ppm; bean leaf discs; after 6 days. The method, then: Common Spider Mite Test (TETRUR) Solvent: 3 parts by weight of dimethylformamide Emulsifier: 1 part by weight of polyoxyethylene alkylphenyl ether To produce an appropriate active ingredient formulation, 1 part by weight of active ingredient is mixed with the stated amounts of solvent and emulsifier, and the concentrate is diluted with emulsifier-containing water to the desired concentration. If required, ammonium salts or ammonium salts and penetrants are additionally added in a concentration of 1000 ppm. Discs of bean leaves (Phaseolus vulgaris) infested by all stages of the red spider mite (Tetranychus urticae) are sprayed with an active ingredient formulation of the desired concentration. After 6 days, the efficacy in % is determined. 100% means that all of the spider mites have been killed; 0% means that none of the spider mites have been killed.

In a further data set the test system is Thrips palmi. In words: Thrips palmi spray test (THRIPL). In kind it is in vivo. The conditions noted are these: application rate 20 ppm; cucumber plants; after 6 days. Here is the method: Thrips palmi Spray Test (THRIPL)
as §1, §2, §3
Young cucumber plants (Cucumis sativus) are sprayed with an active ingredient formulation of the desired concentration. After drying, filter paper discs with about 100 thrips eggs (Thrips palmi) are placed onto the treated plants and, to give 100% air humidity, covered with housings.
After 6 days, the efficacy in % feeding damage is determined 100% means that there is no feeding damage; 0% means that there is no difference from the untreated control.

Data set [2] relates to Tetranychus urticae. Kind of data set: Tetranychus test, OP-resistant (TETRUR spray treatment). In kind it is in vivo. The conditions noted are these: application rate 100 g/ha; bean leaf discs; after 6 days. The essentials:
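Bean leaf discs infested with all stages of OP-resistant T. urticae sprayed with compound formulated in acetone/DMF plus alkylaryl polyglycol ether emulsifier, diluted in water. Efficacy (% mites killed) scored after 6 days.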

A further data set is described as follows: logP (HPLC-MS). It counts as physicochemical.

The values that follow come from patent US9107411B2, “Indolecarboxamides and benzimidazolecarboxamides as insecticides and acaricides” (BAYER INTELLECTUAL PROPERTY GMBH, priority 2011, dated 2015).

SMILES strings stand for the structures. Like-named read-outs stand apart in the source and are kept apart here.

As for `C#CCn1c(C(=O)NC(c2ccc(F)c(C(F)(F)F)c2)C(F)(F)F)cc2cc(C(=O)NC3CC3)c(Cl)cc21` (stereo not drawn) [Compound 6], in the data set on Boophilus microplus, the “efficacy (laying of fertile eggs)” value is reported as 100%. In addition, the “efficacy (kill in %)” value in the data set on Ctenocephalides felis, with Lucilia cuprina larvae and in the data set on adult Musca domestica was 100% each time. Also, the efficacy in % with Aulacophora femoralis is listed as 100%; in the data set on Myzus persicae it was 90%; in the data set on Tetranychus urticae [1], 100%; in the data set with Tetranychus urticae [2], 80%. Moreover, the “efficacy in % feeding damage” value in the data set with Thrips palmi was 90%. The molecule also had a log p in the data set “logP (HPLC-MS)” (HPLC, reversed-phase column (C18), acidic range pH 2.7, acetonitrile (0.1% formic acid)/water gradient, 43° C., calibration with unbranched alkan-2-ones) of 3.59.
As for `CCn1c(C(=O)NC(c2cccc(C(F)(F)F)c2)C(F)(F)F)cc2cc(C(=O)NC3(C#N)CC3)c(Cl)cc21` (stereo not drawn) [Compound 7, 6-chloro-N^5-(1-cyanocyclopropyl)-1-ethyl-N^2-{2,2,2-trifluoro-1-[3-(trifluoromethyl)phenyl]ethyl}-1H-indole-2,5-dicarboxamide], in the data set on Boophilus microplus, the “efficacy (laying of fertile eggs)” value is 100%. Besides, the “efficacy (kill in %)” value in the data set on Ctenocephalides felis, with Lucilia cuprina larvae and in the data set with adult Musca domestica was 100% throughout. Also, the efficacy in % in the data set with Aulacophora femoralis was 100%; in the data set on Myzus persicae, 98%; with Tetranychus urticae [1], 100%; with Tetranychus urticae [2] it was 100%. In the data set on Thrips palmi, the “efficacy in % feeding damage” value is listed as 98%. In addition, the chromatographic logP in “logP (HPLC-MS)” (HPLC, reversed-phase column (C18), acidic range pH 2.7, acetonitrile (0.1% formic acid)/water gradient, 43° C., calibration with unbranched alkan-2-ones, read-out: log p) is 3.78; in “logP (HPLC-MS)” (HPLC-MS) it was 3.8.
